Biological target: Platelet-activating factor receptor (Cavia porcellus, UniProt P21556)
Assay: Displacement of [3H]-WEB 2086 from Platelet activating factor receptor (guinea pig) transgenic mouse muscle membrane

Platelet-activating factor receptor, sequence (P21556 whole entry): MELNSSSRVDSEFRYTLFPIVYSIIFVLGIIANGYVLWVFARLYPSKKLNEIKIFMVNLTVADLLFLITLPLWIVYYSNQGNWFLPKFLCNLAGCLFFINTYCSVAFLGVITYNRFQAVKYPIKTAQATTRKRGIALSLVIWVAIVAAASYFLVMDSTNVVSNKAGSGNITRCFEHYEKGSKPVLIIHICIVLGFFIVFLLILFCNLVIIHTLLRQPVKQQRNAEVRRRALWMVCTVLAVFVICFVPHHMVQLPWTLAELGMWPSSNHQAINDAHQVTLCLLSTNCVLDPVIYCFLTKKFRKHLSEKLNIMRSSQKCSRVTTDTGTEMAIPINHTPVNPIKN

SMILES | Ki [nM]
C[C@@H]1C(=O)OC2[C@H](O)C34C5OC(=O)C3(OC3OC(=O)[C@H](OCc6ccccc6)C34[C@@H](C(C)(C)C)[C@@H]5O)[C@]21O (some centres undefined) | 1670
CC(=O)O[C@H]1C2OC(=O)C34OC5OC(=O)[C@H](O)C5([C@H]1C(C)(C)C)C23[C@@H](O)C1OC(=O)[C@@H](C)[C@@]14O (some centres undefined) | 7840
C[C@@H]1C(=O)OC2[C@H](O)C34C5OC(=O)C3(OC3OC(=O)[C@H](OCc6ccccc6)C34[C@@H](C(C)(C)C)[C@H]5O)[C@]21O (some centres undefined) | 600
C[C@@H]1C(=O)OC2[C@H](O)C34C5OC(=O)C3(OC3OC(=O)[C@H](OCc6ccccc6)C34[C@@H](C(C)(C)C)[C@H]5F)[C@]21O (some centres undefined) | 100
C[C@@H]1C(=O)OC2[C@H](O)C34C5OC(=O)C3(OC3OC(=O)[C@H](O)C34[C@@H](C(C)(C)C)[C@H]5Cl)[C@]21O (some centres undefined) | 110
C[C@@H]1C(=O)O[C@H]2[C@H](O)[C@]34[C@@H]5OC(=O)[C@]3(OC3OC(=O)[C@H](O)C34C(C(C)(C)C)[C@@H]5O)[C@@]12O (single isomer, unassigned) | 12600
CN[C@H]1C2OC(=O)C34OC5OC(=O)[C@H](O)C5([C@H]1C(C)(C)C)C23[C@@H](O)C1OC(=O)[C@@H](C)[C@@]14O (some centres undefined) | 610
C[C@@H]1C(=O)OC2[C@H](O)C34C5OC(=O)C3(OC3OC(=O)[C@H](O)C34[C@@H](C(C)(C)C)[C@H]5N)[C@]21O (some centres undefined) | 8640
C[C@@H]1C(=O)OC2[C@H](O)C34C5C[C@H](C(C)(C)C)C36C(OC(=O)[C@@H]6OCc3ccccc3)OC4(C(=O)O5)[C@]21O (some centres undefined) | 120
C[C@@H]1C(=O)O[C@H]2[C@H](O)[C@]34[C@@H]5OC(=O)[C@]3(OC3OC(=O)[C@H](O)C34C(C(C)(C)C)[C@H]5O)[C@@]12O (single isomer, unassigned) | 4260
CCN[C@H]1C2OC(=O)C34OC5OC(=O)[C@H](O)C5([C@H]1C(C)(C)C)C23[C@@H](O)C1OC(=O)[C@@H](C)[C@@]14O (some centres undefined) | 1620
C[C@@H]1C(=O)O[C@H]2[C@H](O)[C@@]34[C@H]5CC(C(C)(C)C)[C@]36[C@@H](OC(=O)[C@@H]6O)O[C@@]4(C(=O)O5)[C@@]12O (single isomer, unassigned) [GINKOLIDE B] | 880
C[C@@H]1C(=O)OC2[C@H](O)C34C5OC(=O)C3(OC3OC(=O)[C@H](O)C34[C@@H](C(C)(C)C)[C@H]5N=[N+]=[N-])[C@]21O (some centres undefined) | 550
C[C@@H]1C(=O)OC2[C@H](O)C34C5OC(=O)C3(OC3OC(=O)[C@H](O)C34[C@@H](C(C)(C)C)[C@H]5F)[C@]21O (some centres undefined) | 990

From ChEMBL document CHEMBL1146600, “Preparation of 7-substituted ginkgolide derivatives: potent platelet activating factor (PAF) receptor antagonists” (J Med Chem, 2003)
